Experimental data: patent US20240173344A1, “USE OF GABAA RECEPTOR AS TARGET IN PREPARATION OR SCREENING OF DRUG FOR LOWERING BLOOD LIPID LEVEL, TREATING OBESITY, AND/OR IMPROVING METABOLISM” (SHANGHAI INSTITUTE OF ENDOCRINE AND METABOLIC DISEASES, priority 2022, published 2024)
Several values for one entry are separate records, joined by “and”; a condition that tells them apart may be missing. Equal entries are not always repeated.

Columns and labels:
GABAA (α1β3γ2) receptor = biological target: T1, GABAA (α1β3γ2) receptor (Homo sapiens, UniProt P14867+P18507); experiment: Bioelectric signal of 293S cell line with GABA and puerarin co-incubation; type: cell-based; settings: 0.5 μM GABA co-incubated with puerarin for 3 min to 5 min
T1 construct: expressed in transfected cells
T1 sequence (P14867 28-456): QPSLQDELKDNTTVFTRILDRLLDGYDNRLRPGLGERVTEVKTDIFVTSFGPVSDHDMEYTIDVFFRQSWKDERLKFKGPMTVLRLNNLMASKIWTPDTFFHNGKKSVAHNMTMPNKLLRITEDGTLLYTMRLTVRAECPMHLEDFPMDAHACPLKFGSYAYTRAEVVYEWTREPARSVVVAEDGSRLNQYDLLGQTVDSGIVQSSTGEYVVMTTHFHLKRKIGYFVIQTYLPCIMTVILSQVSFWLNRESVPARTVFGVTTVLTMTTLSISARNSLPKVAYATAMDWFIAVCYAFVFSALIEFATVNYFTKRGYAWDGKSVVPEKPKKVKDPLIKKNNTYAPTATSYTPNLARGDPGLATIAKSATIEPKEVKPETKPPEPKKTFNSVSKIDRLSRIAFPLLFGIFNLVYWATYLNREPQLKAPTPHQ
T1 sequence (P28472 26-473 partner): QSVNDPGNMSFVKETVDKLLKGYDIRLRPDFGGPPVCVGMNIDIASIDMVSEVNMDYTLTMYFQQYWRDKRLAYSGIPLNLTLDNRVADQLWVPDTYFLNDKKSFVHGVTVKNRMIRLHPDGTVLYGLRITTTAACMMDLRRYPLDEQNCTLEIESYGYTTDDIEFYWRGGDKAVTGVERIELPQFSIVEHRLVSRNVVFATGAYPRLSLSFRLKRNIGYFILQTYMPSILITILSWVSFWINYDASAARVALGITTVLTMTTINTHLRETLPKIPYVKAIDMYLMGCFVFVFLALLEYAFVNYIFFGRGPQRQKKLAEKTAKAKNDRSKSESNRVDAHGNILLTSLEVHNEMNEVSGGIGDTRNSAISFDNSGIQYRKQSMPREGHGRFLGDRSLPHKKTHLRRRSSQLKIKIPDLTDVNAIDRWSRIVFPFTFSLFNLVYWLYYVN
T1 sequence (P18507 40-475): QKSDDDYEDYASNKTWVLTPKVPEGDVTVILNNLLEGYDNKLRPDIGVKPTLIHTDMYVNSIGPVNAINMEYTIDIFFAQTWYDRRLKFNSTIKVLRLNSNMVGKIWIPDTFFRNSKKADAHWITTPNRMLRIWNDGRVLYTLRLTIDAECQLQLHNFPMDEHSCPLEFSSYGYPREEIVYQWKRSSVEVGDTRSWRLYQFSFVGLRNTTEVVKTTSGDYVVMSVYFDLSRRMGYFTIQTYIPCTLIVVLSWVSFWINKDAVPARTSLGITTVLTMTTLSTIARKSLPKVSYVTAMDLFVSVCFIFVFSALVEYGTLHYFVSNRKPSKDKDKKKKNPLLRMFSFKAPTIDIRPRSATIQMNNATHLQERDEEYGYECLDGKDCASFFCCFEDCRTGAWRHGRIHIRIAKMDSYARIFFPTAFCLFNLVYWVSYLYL

[1] = biological target: T2, GABAA receptor in the DMV (Mus musculus, UniProt P22723+P62812); experiment: Colocalization staining of puerarin probe with GABAA receptor on brain slices; settings: brain slice tissue, immunofluorescence staining
T2 construct: from tissue; host or cells: brain slice tissue (DMV)
T2 sequence (P62812 28-455): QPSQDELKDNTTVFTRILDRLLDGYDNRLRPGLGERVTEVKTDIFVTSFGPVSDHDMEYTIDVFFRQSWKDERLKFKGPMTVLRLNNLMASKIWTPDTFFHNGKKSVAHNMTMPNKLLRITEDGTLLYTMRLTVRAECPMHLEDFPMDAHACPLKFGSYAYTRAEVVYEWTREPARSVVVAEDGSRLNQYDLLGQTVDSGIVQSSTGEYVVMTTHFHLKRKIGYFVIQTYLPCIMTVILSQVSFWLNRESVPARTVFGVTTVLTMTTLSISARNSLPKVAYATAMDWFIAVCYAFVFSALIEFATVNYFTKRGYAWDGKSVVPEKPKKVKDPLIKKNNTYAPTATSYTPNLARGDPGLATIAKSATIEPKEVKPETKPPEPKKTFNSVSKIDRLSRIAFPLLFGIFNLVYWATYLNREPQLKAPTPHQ
T2 sequence (P63080 26-473 partner): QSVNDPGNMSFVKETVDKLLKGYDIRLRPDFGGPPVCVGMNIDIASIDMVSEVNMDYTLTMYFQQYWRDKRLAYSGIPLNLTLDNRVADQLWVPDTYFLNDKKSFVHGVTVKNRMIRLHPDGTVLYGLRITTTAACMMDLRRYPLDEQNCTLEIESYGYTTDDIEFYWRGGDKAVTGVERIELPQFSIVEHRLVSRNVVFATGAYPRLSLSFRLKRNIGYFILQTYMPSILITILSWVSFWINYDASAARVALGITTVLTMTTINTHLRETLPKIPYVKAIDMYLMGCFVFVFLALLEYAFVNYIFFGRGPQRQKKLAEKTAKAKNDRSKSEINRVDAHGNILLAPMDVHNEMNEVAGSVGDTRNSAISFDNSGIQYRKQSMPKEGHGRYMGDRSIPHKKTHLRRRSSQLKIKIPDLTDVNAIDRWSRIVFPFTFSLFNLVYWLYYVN
T2 sequence (P22723 39-474): as the sequence (P18507 40-475) above

neurons in the DMV = experiment: Electrophysiological whole-cell patch-clamp recording of brain slices; type: cell-based; settings: during puerarin incubation (concentration: 10 mM), current clamp, brain slices of obese mice
Method: Obese mouse models fed with a high-fat feed for 12 weeks were taken and myocardially perfused with an artificial cerebrospinal fluid (ACSF), and 200 μm to 300 μm-thick brainstem tissue slices were prepared by vibration slicing; and brain slices were incubated in oxygen at 35° C. for 1 h and then transferred to a patch-clamp system for whole-cell patch-clamp recording. Recorded neurons were selected according to the cellular morphology in the DMV, and a green-fluorescent dye was added to a pipette solution to label cells.

obese mouse model = experiment: Intraperitoneal puerarin for 20 d in high-fat-diet obese mouse model: body weight, blood lipid, jejunal TG, c-fos staining, oil red O staining; type: in vivo, C57BL/6J mice; settings: brain slice c-fos immunofluorescence, puerarin i.p. 20 d vs control group
Method: The C57BL/6J mice were used as experimental mice in the present disclosure. The experimental mice each were raised in an SPF-level environment at 22° C. to 24° C. with a 12:12 circadian rhythm, and the experimental mice each were subjected to anaesthesia, analgesia, surgery, intraperitoneal injection, and other experimental operations in accordance with the relevant provisions of animal ethics.
In the present disclosure, the mice were fed with a high-fat diet in which a mass percentage of fat was 60% for 12 weeks, and when a body weight reached 35 g or more, animal models of alimentary obesity were successfully constructed. At a formal stage of the experiment (starting on day 0 in FIG. 1A, FIG. 3A, FIG. 6A, and FIG. 7A), the mice were raised in single cages, during which a daily food intake of each mouse model was accurately recorded, the feces was collected before and after drug intervention, and a daily body weight curve was recorded.
A method for determining TG in a sample was as follows: 20 mg to 30 mg of a sample was first weighed, a 5% NP40-containing lysis buffer was added, and a resulting mixture was homogenated and incubated in a metal bath at 95° C. for 5 min, which was repeated twice. […] 2 μl of the supernatant was added to each well, and after a chromogenic reaction was completed, a value of each well was determined by a microplate reader. […]

[2] = biological target: T3, α1 subunit of the GABAA receptor (Gabra1) in the DMV (Mus musculus, UniProt P22723+P62812); experiment: DMV-specific knockdown of Gabra1 to block puerarin in obese mouse model: body weight, blood lipid, jejunal TG, c-fos; type: in vivo, mice; settings: for Body weight curve change percentage: single mice and mean
T3 construct: from tissue; host or cells: brainstem DMV of living obese mice
T3 sequence (P62812 28-455): as the sequence (P62812 28-455) above
T3 sequence (P63080 26-473 partner): as the sequence (P63080 26-473 partner) above
T3 sequence (P22723 39-474): as the sequence (P18507 40-475) above

[3] = biological target: T4, γ2 subunit of the GABAA receptor (Gabrg2) in the DMV (Mus musculus, UniProt P22723+P62812); experiment: DMV-specific knockdown of Gabrg2 to block puerarin in obese mouse model: body weight, blood lipid, jejunal TG, c-fos; type: in vivo, mice; settings: for Body weight curve change percentage / Jejunal TG level / Blood lipid level: single mice and mean
T4 construct: from tissue; host or cells: brainstem DMV of living obese mice
T4 sequence (P22723 39-474): as the sequence (P18507 40-475) above
T4 sequence (P62812 28-455): as the sequence (P62812 28-455) above
T4 sequence (P63080 26-473 partner): as the sequence (P63080 26-473 partner) above
Method: A method for determining TG in a sample was as follows: 20 mg to 30 mg of a sample was first weighed, a 5% NP40-containing lysis buffer was added, and a resulting mixture was homogenated and incubated in a metal bath at 95° C. for 5 min, which was repeated twice. A resulting homogenate was cooled to room temperature and then centrifuged at 15,000 rpm for 2 min to 3 min, and a resulting supernatant was pipetted for determination. A Biovision kit was used to determine TG. 2 μl of the supernatant was added to each well, and after a chromogenic reaction was completed, a value of each well was determined by a microplate reader. TG in the small intestinal tissue was quantified through a standard protein concentration; and a total amount of lipids excreted with the feces was calculated based on a measured value of the feces sample and a total mass of the sample at 24 h.
Similar to the above experiment, the rAAV-DIO-Gabrg2-shRNA (BrainVTA, China) was used to knock down Gabrg2 (a gene encoding the γ2 subunit of the GABAA receptor) in the DMV in an obese mouse model, and the rAAV-DIO-mCherry (BrainVTA, China) was used as a control group.

[4] = Puerarin group (control virus in DMV, puerarin i.p. daily), Day 0 baseline
[5] = Puerarin group vs control group
[6] = Puerarin group (control virus, puerarin i.p. 7 d)
[7] = Puerarin group (control virus, puerarin i.p. 7 d), mean

SMILES: O=c1c(-c2ccc(O)cc2)coc2c([C@@H]3O[C@H](CO)[C@@H](O)[C@H](O)[C@H]3O)c(O)ccc12 [Puerarin, puerarin]
- Chloride influx / bioelectric signal change (GABAA (α1β3γ2) receptor): increased chloride ions would enter cells, causing hyperpolarization
- Distribution of puerarin probe and colocalization with GABAA receptor staining [1]: enriched in the DMV and showed prominent colocalization with staining of the GABAA receptor
- Action potential discharge frequency of neurons in the DMV (neurons in the DMV): significantly reduced
- Membrane potential of neurons in the DMV (neurons in the DMV): slightly lower than the initial baseline
- Number of c-fos fluorescence signals in the DMV brain region (obese mouse model): smaller than that in the control group
- Body weight curve change percentage ([2]; Gα1 blocking group (Gabra1 shRNA virus in DMV, puerarin i.p. daily), Day 0 baseline): 0.00%
- Body weight curve change percentage ([2]; Gα1 blocking group (Gabra1 shRNA virus, puerarin i.p. daily), Day 2): 0.70% and 0.68% and 0.80% and 0.69% and 1.06% and 0.91% and 0.82% and 0.83%
- c-fos staining of brain slices (DMV) ([2]; Gα1 blocking group (tissue-specific knockdown of Gabra1, puerarin i.p.)): would intervene in the inhibitory effect of puerarin on neurons in the DMV
- Body weight curve change percentage [2, 4]: 0.00%
- c-fos staining of brain slices (DMV) [2, 5]: less than that of the control group
- Body weight curve change percentage ([3]; Gγ2 blocking group (Gabrg2 shRNA virus in DMV, puerarin i.p. daily), Day 0 baseline): 0.00%
- Jejunal TG level ([3]; Gγ2 blocking group (Gabrg2 shRNA virus, puerarin i.p. 7 d)): 1.1912 μmol/mg/protein and 1.5075 μmol/mg/protein and 1.6522 μmol/mg/protein and 1.1566 μmol/mg/protein and 1.0093 μmol/mg/protein
- Jejunal TG level ([3]; Gγ2 blocking group (Gabrg2 shRNA virus, puerarin i.p. 7 d), mean): 1.3034 μmol/mg/protein
- Body weight curve change percentage ([3]; Gγ2 blocking group (Gabrg2 shRNA virus, puerarin i.p. daily), Day 1): 0.82% and 0.55% and −0.82% and −0.55% and 0.79%
- Body weight curve change percentage ([3]; Gγ2 blocking group (Gabrg2 shRNA virus, puerarin i.p. daily), Day 1, mean): 0.16%
- Body weight curve change percentage ([3]; Gγ2 blocking group (Gabrg2 shRNA virus, puerarin i.p. daily), Day 2): 1.37% and −0.28% and 0.27% and 0.54% and −0.81%
- Body weight curve change percentage ([3]; Gγ2 blocking group (Gabrg2 shRNA virus, puerarin i.p. daily), Day 2, mean): 0.22%
- Body weight curve change percentage ([3]; Gγ2 blocking group (Gabrg2 shRNA virus, puerarin i.p. daily), Day 3): 0.55% and −1.13% and 0.54% and 1.08% and 1.57%
- Body weight curve change percentage ([3]; Gγ2 blocking group (Gabrg2 shRNA virus, puerarin i.p. daily), Day 3, mean): 0.52%
- Body weight curve change percentage ([3]; Gγ2 blocking group (Gabrg2 shRNA virus, puerarin i.p. daily), Day 4): 0.28% and −1.41% and 0.80% and 1.60% and 1.06%
- Body weight curve change percentage ([3]; Gγ2 blocking group (Gabrg2 shRNA virus, puerarin i.p. daily), Day 4, mean): 0.47%
- Body weight curve change percentage ([3]; Gγ2 blocking group (Gabrg2 shRNA virus, puerarin i.p. daily), Day 5): 0.55% and −0.56% and 2.62% and 3.41% and 0.79%
- Body weight curve change percentage ([3]; Gγ2 blocking group (Gabrg2 shRNA virus, puerarin i.p. daily), Day 5, mean): 1.36%
- Body weight curve change percentage ([3]; Gγ2 blocking group (Gabrg2 shRNA virus, puerarin i.p. daily), Day 6): 0.55% and −0.56% and 2.62% and 3.41% and 1.83%
- Body weight curve change percentage ([3]; Gγ2 blocking group (Gabrg2 shRNA virus, puerarin i.p. daily), Day 6, mean): 1.57%
- Body weight curve change percentage ([3]; Gγ2 blocking group (Gabrg2 shRNA virus, puerarin i.p. daily), Day 7): 0.82% and 0.00% and 2.37% and 3.16% and 2.09%
- Body weight curve change percentage ([3]; Gγ2 blocking group (Gabrg2 shRNA virus, puerarin i.p. daily), Day 7, mean): 1.69%
- c-fos staining signal of neurons in the DMV ([3]; Gγ2 blocking group (tissue-specific knockdown of Gabrg2, puerarin i.p.)): could intervene in the inhibitory effect of puerarin on neurons in the DMV
- Body weight curve change percentage [3, 4]: 0.00%
- Blood lipid level [3, 6]: 0.6408 mM and 0.7143 mM and 0.8673 mM and 0.7337 mM and 0.7380 mM
- Jejunal TG level [3, 6]: 0.9191 μmol/mg/protein and 0.8860 μmol/mg/protein and 0.8466 μmol/mg/protein and 0.9139 μmol/mg/protein and 0.7516 μmol/mg/protein
- Blood lipid level [3, 7]: 0.7388 mM
- Jejunal TG level [3, 7]: 0.8634 μmol/mg/protein
- Body weight curve change percentage ([3]; Puerarin group (control virus, puerarin i.p. daily), Day 1): −1.10% and −1.06% and −0.81% and −0.79% and 0.82%
- Body weight curve change percentage ([3]; Puerarin group (control virus, puerarin i.p. daily), Day 1, mean): −0.59%
- Body weight curve change percentage ([3]; Puerarin group (control virus, puerarin i.p. daily), Day 2): −0.82% and −1.60% and −0.81% and −1.06% and −1.11%
- Body weight curve change percentage ([3]; Puerarin group (control virus, puerarin i.p. daily), Day 2, mean): −1.08%
- Body weight curve change percentage ([3]; Puerarin group (control virus, puerarin i.p. daily), Day 3): −2.50% and −0.53% and −2.20% and −1.33% and −1.68%
- Body weight curve change percentage ([3]; Puerarin group (control virus, puerarin i.p. daily), Day 3, mean): −1.65%
- Body weight curve change percentage ([3]; Puerarin group (control virus, puerarin i.p. daily), Day 4): −3.07% and −2.14% and −2.76% and −1.87% and −0.83%
- Body weight curve change percentage ([3]; Puerarin group (control virus, puerarin i.p. daily), Day 5): −4.83% and −2.97% and −1.64% and −5.20%
- Body weight curve change percentage ([3]; Puerarin group (control virus, puerarin i.p. daily), Day 5, mean): −3.52%
- Body weight curve change percentage ([3]; Puerarin group (control virus, puerarin i.p. daily), Day 6): −5.13% and −4.10% and −3.05% and −5.54% and −3.41%
- Body weight curve change percentage ([3]; Puerarin group (control virus, puerarin i.p. daily), Day 6, mean): −4.24%
- Body weight curve change percentage ([3]; Puerarin group (control virus, puerarin i.p. daily), Day 7): −6.34% and −4.96% and −3.33% and −5.54% and −3.41%
- Body weight curve change percentage ([3]; Puerarin group (control virus, puerarin i.p. daily), Day 7, mean): −4.72%
- c-fos staining signal of neurons in the DMV [3, 5]: inhibited by puerarin
